System: NCI-H292 cells
Test: MUC5AC mRNA and protein in NCI-H292 cells incubated with cigarette smoke solution (Example 7)
Format: cell-based, human
Settings: within 6 hours, increased at 12 hours
Experimental: NCI-H292 cells, a human pulmonary mucoepidermoid carcinoma cell line, were grown in RPMI 1640 medium containing 10% fetal bovine serum, penicillin (100 U/ml), streptomycin (100 μg/ml) and Hepes (25 mM) at 37° C. in a humidified 5% CO2 water-jacketed incubator. Either 6-well culture plates or 8-chamber slides were used to culture the cells. When confluent, cells were incubated for 1 hour with cigarette smoke solution. The cells were then washed and incubated with fresh medium alone. Experiments were terminated at preselected times (for mRNA, 6 hours and 12 hours; for protein, 24 hours). As controls, cells were incubated with medium alone for same time periods. […] The effects of a selective inhibitor of platelet-derived growth factor receptor tyrosine kinase (tyrphostin AG1295, 100 μM, Calbiochem), and a negative control for tyrphostins (tyrphostin A1, 100 μM, Calbiochem) were also examined. The role of reactive oxygen species was examined using a scavenger of oxygen free radicals DMSO (1%, Sigma), or superoxide dismutase (SOD, 300 U/ml, Sigma).
In situ hybridization was performed using a human EGFR probe, which contains a 350-bp cDNA fragment of the human EGFR gene (pTRI-EGFR-human probe template, Ambion, Austin, Tex.) and a human MUC5AC probe, which contains a 298-bp cDNA fragment of the human MUC5AC gene, The 350-bp cDNA human EGFR was subcloned into pBluescript II SK-vector at Kpn I and EcoR I sites. This pBluescript was used to generate human EGFR antisense and sense probes. Hybridization was performed as described previously. Lou et al. (1998) Am. J. Respir. Crit. Care Med. 157:1927-1934. In brief, the cells grown on the 8-chamber slides were fixed in 4% paraformaldehyde, rehydrated in 0.5×SSC, and then acetylated in triethanolamine and acetic anhydride. Hybridization was carried out with 2500-4000 cpm/μl of antisense or sense probe in 50% deionized formamide, 0.3 M NaCl, 20 mM Tris, 5 mM EDTA, 1× Denhardt's solution, 20 mM dithiothreitol, 10% dextran sulfate, 0.5 mg/ml yeast tRNA, and 0.5 mg/ml sonicated salmon sperm DNA at 58° overnight. Posthybridization treatment consisted of washes with 2×SSC, 1 mM EDTA, 10 mM β-mercaptoethanol at room temperature, incubation with RNase solution (20 μg/ml) for 30 min at room temperature, and further washes in 0.1×SSC, 1 mM EDTA, 10 mM β-mercaptoethanol at 55° C. for 2 hours and then in 0.5×SSC at room temperature for 20 minutes. Specimens were dehydrated, air-dried, and covered with Kodak NBT nuclear track emulsion (Eastman Kodak, Rochester, N.Y.) for autoradiography. After exposure for 7 to 21 days at 4° C., the slides were developed, fixed, and counterstained with hematoxylin.
MUC5AC protein was measured as described previously. Takeyama et al. (1999) Proc. Natl. Acad. Sci. USA 96:3081-3086. In brief, cell lysates were prepared with PBS at multiple dilutions, and 50 μl of each sample was incubated with bicarbonate-carbonate buffer (50 μl) at 40° C. in a 96-well plate (Maxisorp Nunc, Fisher Scientific, Santa Clara, Calif.), until dry. Plates were washed three times with PBS and blocked with 2% bovine serum albumin, fraction V (Sigma) for 1 hour at room temperature. Plates were again washed three times with PBS and then incubated with 50 μl of MUC5AC mAb (1:1 00) that was diluted with PBS containing 0.05% Tween 20. After 1 hour, the wells were washed three times with PBS, and 100 μl horseradish peroxidase-goat anti-mouse IgG conjugate (1:10,000) was dispensed into each well. After 1 hour, plates were washed three times with PBS. Color reaction was developed with 3,3′,5,5′-tetramethylbenzidine (TMB) peroxidase solution (Kirkegaard & Perry Laboratories, Gaithersburg, Md.) and stopped with 2N H2S04. Absorbance was read at 450 nm.

TGFα: transforming growth factor alpha, EGF-R ligand (recombinant human; rat synthetic in vivo)
MUC5AC mRNA expression: increased

Source: US7531500B2, “Preventing airway mucus production by administration of EGF-R antagonists” (The Regents of the University of California, priority 1998, dated 2009)
